Experimental data from ChEMBL document CHEMBL4130359, “Indazole-based ligands for estrogen-related receptor α as potential anti-diabetic agents” (Eur J Med Chem, 2017).

Legend:
[1] = biological target: T1, Steroid hormone receptor ERR1 (Homo sapiens, UniProt P11474); test: Antagonist activity at His6-tagged ERRalpha LBD (unknown origin) assessed as inhibition of GST-tagged SRC-2 co-activator peptide recruitment after 18 hrs by TR-FRET assay
T1 sequence (P11474 whole entry): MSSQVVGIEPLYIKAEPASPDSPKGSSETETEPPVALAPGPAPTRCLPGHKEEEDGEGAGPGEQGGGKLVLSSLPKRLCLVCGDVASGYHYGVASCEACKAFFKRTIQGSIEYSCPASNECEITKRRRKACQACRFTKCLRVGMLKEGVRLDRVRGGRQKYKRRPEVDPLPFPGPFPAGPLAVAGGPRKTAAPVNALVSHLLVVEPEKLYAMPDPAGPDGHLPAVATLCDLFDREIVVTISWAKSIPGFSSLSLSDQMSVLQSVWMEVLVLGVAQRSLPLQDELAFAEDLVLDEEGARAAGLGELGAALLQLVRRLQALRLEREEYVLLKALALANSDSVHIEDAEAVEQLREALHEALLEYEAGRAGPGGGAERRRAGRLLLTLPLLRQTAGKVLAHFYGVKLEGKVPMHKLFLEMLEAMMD

[2] = tested on: Rattus norvegicus; test: Decrease in fed plasma insulin level in Zucker rat sub-chronic fa/fa prediabetic model assessed as change in plasma insulin level at 10 mg/kg, po qd for 4 days measured on day 5 relative to control; assay type: functional; design: scale not given: the % may be the effect or the level left
[3] = tested on: Rattus norvegicus; test: Decrease in fed plasma triglyceride level in Zucker rat sub-chronic fa/fa prediabetic model assessed as change in plasma triglyceride level at 10 mg/kg, po qd for 4 days measured on day 5 relative to control; assay type: functional; design: scale not given: the % may be the effect or the level left
[4] = biological target: Voltage-gated inwardly rectifying potassium channel KCNH2 (Homo sapiens, UniProt Q12809); test: Displacement of [3H]astemizole from human ERG; conditions: for inhibition (INH): human
[5] = Drug uptake in Sprague-Dawley rat plasma at 10 mg/kg, po via gavage by LC-MS analysis; assay type: ADME, organism-based; conditions: in vivo
[6] = tested on: Rattus norvegicus; test: Decrease in fed plasma glucose level in Zucker rat sub-chronic fa/fa prediabetic model at 10 mg/kg, po qd for 4 days measured on day 5 relative to control; assay type: functional; design: scale not given: the % may be the effect or the level left
[7] = tested on: Rattus norvegicus; test: Antidiabetic activity in Zucker rat sub-chronic fa/fa prediabetic model assessed as decrease in plasma glucose AUC (0 to 120 mins) at 10 mg/kg, po qd during 10 days study by OGTT relative to control; assay type: functional; design: scale not given: the % may be the effect or the level left
[8] = tested on: Rattus norvegicus; test: Toxicity in Zucker rat sub-chronic fa/fa prediabetic model assessed as increase in body weight at 10 mg/kg, po qd during 10 days study; assay type: organism-based; conditions: in vivo, 240 h
[9] = tested on: Rattus norvegicus; test: Toxicity in Zucker rat sub-chronic fa/fa prediabetic model assessed as increase in food consumption at 10 mg/kg, po qd during 10 days study; assay type: organism-based; conditions: in vivo, 240 h
[10] = tested on: Rattus norvegicus; test: Toxicity in Zucker rat sub-chronic fa/fa prediabetic model assessed as effect on liver enzymes at 10 mg/kg, po qd during 10 days study; assay type: organism-based; conditions: in vivo, 240 h
[11] = biological target: Cytochrome P450 3A4 (Homo sapiens, UniProt P08684); test: Inhibition of CYP3A4 (unknown origin) in microsomes; assay type: ADME
[12] = biological target: Cytochrome P450 2C19 (Homo sapiens, UniProt P33261); test: Inhibition of CYP2C19 (unknown origin) in microsomes; assay type: ADME
[13] = biological target: Cytochrome P450 2C9 (Homo sapiens, UniProt P11712); test: Inhibition of CYP2C9 (unknown origin) in microsomes; assay type: ADME
[14] = biological target: Steroid hormone receptor ERR2 (Homo sapiens, UniProt O95718); test: Antagonist activity at recombinant GST-tagged human ERRbeta LBD assessed as inhibition of fluorescein-labeled coactivator peptide recruitment preincubated with enzyme followed by coactivator addition by LanthaScreen TR-FRET assay
[15] = tested on: Rattus norvegicus; test: Decrease in fed plasma free fatty acid level in Zucker rat sub-chronic fa/fa prediabetic model at 10 mg/kg, po qd for 4 days measured on day 5 relative to control; assay type: functional; design: scale not given: the % may be the effect or the level left
[16] = tested on: Rattus norvegicus; test: Toxicity in Zucker rat sub-chronic fa/fa prediabetic model assessed as increase in body weight at 10 mg/kg, po qd for 4 days; assay type: organism-based; conditions: in vivo, 96 h

Chain of Cytochrome P450 3A4 (P08684 whole entry): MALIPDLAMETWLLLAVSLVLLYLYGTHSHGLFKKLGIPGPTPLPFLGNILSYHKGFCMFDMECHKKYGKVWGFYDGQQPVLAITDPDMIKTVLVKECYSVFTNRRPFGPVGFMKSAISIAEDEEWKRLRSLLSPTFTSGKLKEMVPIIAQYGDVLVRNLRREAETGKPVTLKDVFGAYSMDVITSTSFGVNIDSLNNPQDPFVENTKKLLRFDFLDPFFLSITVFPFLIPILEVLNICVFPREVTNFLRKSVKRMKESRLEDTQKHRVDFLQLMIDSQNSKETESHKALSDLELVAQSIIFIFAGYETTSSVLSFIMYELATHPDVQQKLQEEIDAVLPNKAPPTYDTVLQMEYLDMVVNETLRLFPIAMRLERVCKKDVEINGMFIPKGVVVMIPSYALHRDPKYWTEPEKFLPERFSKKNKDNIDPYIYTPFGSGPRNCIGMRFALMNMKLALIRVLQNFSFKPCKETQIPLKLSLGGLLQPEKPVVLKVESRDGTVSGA
Chain of Voltage-gated inwardly rectifying potassium channel KCNH2 (Q12809 whole entry): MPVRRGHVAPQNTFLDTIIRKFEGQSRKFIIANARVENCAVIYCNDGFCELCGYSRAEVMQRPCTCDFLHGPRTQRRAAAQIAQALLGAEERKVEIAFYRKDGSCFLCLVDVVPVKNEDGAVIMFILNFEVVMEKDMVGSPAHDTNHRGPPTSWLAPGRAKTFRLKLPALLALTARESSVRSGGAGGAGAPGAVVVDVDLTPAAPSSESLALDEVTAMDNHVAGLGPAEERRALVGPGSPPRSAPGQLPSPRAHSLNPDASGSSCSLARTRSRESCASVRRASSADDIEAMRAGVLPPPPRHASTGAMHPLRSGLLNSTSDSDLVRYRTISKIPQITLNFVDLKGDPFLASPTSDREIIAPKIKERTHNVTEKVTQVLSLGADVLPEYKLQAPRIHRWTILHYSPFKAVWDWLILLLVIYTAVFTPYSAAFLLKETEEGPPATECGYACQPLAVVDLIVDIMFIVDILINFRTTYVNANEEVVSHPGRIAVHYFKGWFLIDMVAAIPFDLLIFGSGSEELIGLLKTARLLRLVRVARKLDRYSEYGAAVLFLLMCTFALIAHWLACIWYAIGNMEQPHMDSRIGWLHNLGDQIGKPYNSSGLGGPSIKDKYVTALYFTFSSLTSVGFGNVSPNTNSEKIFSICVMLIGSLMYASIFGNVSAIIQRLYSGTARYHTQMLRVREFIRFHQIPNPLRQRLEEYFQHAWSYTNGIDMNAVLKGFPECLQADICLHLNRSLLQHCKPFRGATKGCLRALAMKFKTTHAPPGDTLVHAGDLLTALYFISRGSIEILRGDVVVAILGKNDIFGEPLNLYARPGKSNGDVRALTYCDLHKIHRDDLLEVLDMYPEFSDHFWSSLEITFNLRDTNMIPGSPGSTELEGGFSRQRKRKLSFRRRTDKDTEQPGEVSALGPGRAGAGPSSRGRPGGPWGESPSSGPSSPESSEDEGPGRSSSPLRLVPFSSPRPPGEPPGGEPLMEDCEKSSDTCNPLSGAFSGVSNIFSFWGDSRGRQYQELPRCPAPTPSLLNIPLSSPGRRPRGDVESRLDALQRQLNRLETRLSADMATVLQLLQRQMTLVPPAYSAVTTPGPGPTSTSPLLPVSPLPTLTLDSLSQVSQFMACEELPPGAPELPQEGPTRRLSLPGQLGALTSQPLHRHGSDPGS
Chain of Cytochrome P450 2C9 (P11712 whole entry, the tested form may be a part): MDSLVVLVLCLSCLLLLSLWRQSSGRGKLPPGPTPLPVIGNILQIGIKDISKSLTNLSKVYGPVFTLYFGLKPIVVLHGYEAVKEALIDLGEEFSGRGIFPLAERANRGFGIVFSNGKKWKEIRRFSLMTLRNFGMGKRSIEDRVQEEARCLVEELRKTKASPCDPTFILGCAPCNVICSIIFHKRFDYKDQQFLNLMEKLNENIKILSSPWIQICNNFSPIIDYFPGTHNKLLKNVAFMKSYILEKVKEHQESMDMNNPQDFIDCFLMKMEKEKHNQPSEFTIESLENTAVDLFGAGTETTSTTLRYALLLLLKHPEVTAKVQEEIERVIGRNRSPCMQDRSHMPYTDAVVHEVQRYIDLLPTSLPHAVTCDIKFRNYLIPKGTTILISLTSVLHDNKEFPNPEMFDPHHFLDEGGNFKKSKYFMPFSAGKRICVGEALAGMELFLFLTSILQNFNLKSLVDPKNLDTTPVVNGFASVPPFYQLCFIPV
Chain of Cytochrome P450 2C19 (P33261 whole entry): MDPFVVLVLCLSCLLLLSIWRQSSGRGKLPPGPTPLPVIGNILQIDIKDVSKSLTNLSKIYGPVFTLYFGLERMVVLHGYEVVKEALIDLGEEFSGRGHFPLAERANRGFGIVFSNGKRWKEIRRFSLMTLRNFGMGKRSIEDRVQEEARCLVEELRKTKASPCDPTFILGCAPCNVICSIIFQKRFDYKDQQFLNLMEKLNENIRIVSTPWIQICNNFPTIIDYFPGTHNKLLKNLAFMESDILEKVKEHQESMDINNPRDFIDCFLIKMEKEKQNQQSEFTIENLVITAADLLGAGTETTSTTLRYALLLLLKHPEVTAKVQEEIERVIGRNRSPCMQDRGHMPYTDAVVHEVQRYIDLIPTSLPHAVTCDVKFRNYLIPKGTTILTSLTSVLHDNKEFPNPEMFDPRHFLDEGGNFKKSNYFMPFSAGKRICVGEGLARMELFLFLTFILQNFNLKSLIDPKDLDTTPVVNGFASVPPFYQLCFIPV
Chain of Steroid hormone receptor ERR2 (O95718 whole entry, the tested form may be a part): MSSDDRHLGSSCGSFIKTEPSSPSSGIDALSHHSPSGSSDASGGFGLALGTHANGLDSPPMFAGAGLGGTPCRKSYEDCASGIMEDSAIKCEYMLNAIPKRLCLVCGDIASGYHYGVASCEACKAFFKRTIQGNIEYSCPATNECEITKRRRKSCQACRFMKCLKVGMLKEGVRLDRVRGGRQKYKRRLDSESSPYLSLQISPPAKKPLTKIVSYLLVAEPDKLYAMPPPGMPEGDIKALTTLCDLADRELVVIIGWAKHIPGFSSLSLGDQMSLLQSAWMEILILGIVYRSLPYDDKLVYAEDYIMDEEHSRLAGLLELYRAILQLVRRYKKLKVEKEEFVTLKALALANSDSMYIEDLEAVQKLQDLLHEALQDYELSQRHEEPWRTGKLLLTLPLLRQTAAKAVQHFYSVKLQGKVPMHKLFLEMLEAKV

| SMILES | IC50 [1] [nM] | Activity [2] [%] | Activity [3] [%] | further results |
| --- | --- | --- | --- | --- |
| O=C1S/C(=C\c2ccc3c(cnn3Cc3ccc(Cl)cc3C(F)(F)F)c2)C(=O)N1C1CCN(CCO)CC1 | 15 | -77 | -40 | inhibition (INH) [4]: Active |
| Cc1nn(Cc2ccc(Cl)cc2C(F)(F)F)c2ccc(/C=C3\SC(=O)N(CC(=O)O)C3=O)cc12 | 28 | -18 | -4 | – |
| N[C@@H](CO)CN1C(=O)S/C(=C\c2ccc3c(cnn3Cc3ccc(Cl)cc3C(F)(F)F)c2)C1=O | 23 | -33 | -45 | inhibition (INH) [4]: Active; Cp [5]: < 100 ng/mL |
| CN1CC[C@H](N2C(=O)S/C(=C\c3ccc4c(cnn4Cc4ccc(Cl)cc4C(F)(F)F)c3)C2=O)[C@@H](F)C1 | 22 | -52 | -51 | Activity [6]: -27%; Activity [7]: -37%; Activity [8]: Toxic; Activity [9]: Toxic; Activity [10]: Toxic |
| CN1CCC(N2C(=O)S/C(=C\c3ccc4c(cnn4Cc4ccc(Cl)cc4C(F)(F)F)c3)C2=O)CC1 | 19 | – | – | inhibition (INH) [11]: Active |
| O=C1S/C(=C\c2ccc3c(cnn3Cc3ccc(Cl)cc3C(F)(F)F)c2)C(=O)N1[C@@H]1CCNC[C@H]1F (relative stereo) | 34 | – | – | IC50 [4]: 21000 nM |
| O=C1S/C(=C\c2ccc3c(cnn3Cc3ccc(C(F)(F)F)cc3C(F)(F)F)c2)C(=O)N1CCN1CCCC1 | 580 | – | – | – |
| COc1ccc(Cn2ncc3cc(/C=C4\SC(=O)N(CCN5CCOCC5)C4=O)ccc32)c(C(F)(F)F)c1 | 8 | -21 | -19 | – |
| O=C(O)CN1C(=O)S/C(=C\c2ccc3c(cnn3Cc3ccc(C(F)(F)F)cc3C(F)(F)F)c2)C1=O | 26 | – | – | – |
| CS(=O)(=O)NC(=O)CN1C(=O)S/C(=C\c2ccc3c(cnn3Cc3ccc(Cl)cc3C(F)(F)F)c2)C1=O | 18 | -14 | 13 | – |
| C[C@H](N)CN1C(=O)S/C(=C\c2ccc3c(cnn3Cc3ccc(Cl)cc3C(F)(F)F)c2)C1=O | 24 | -60 | -55 | Cp [5]: < 100 ng/mL |
| O=C1S/C(=C\c2ccc3c(cnn3Cc3ccc(Cl)cc3C(F)(F)F)c2)C(=O)N1C1CCNCC1 | 16 | – | – | inhibition (INH) [12]: Active; inhibition (INH) [11]: Active; inhibition (INH) [13]: Active |
| O=C1S/C(=C\c2ccc3c(cnn3Cc3ccc(Cl)cc3C(F)(F)F)c2)C(=O)N1CCN1CCCC1 | 17 | -49 | -30 | inhibition (INH) [4]: Active; Cp [5]: < 100 ng/mL |
| COc1ccc(Cn2ncc3cc(/C=C4\SC(=O)N(CCN5CCCC5)C4=O)ccc32)c(C(F)(F)F)c1 | 46 | – | – | – |
| O=C(O)CN1C(=O)S/C(=C\c2ccc3c(cnn3Cc3ccc(Cl)cc3C(F)(F)F)c2)C1=O | 9 | -50 | -14 | – |
| O=C(O)C1CCC(N2C(=O)S/C(=C\c3ccc4c(cnn4Cc4ccc(Cl)cc4C(F)(F)F)c3)C2=O)CC1 (configuration not stated) | 12 | -30 | -19 | – |

| SMILES | IC50 [1] [nM] | Activity [2] [%] | Activity [3] [%] | further results |
| --- | --- | --- | --- | --- |
| CN(C)S(=O)(=O)NC(=O)CN1C(=O)S/C(=C\c2ccc3c(cnn3Cc3ccc(Cl)cc3C(F)(F)F)c2)C1=O | 23 | -29 | -46 | – |
| NS(=O)(=O)NC(=O)CN1C(=O)S/C(=C\c2ccc3c(cnn3Cc3ccc(Cl)cc3C(F)(F)F)c2)C1=O | 19 | -51 | -14 | – |
| O=C1S/C(=C\c2ccc3c(cnn3Cc3ccc(Cl)cc3C(F)(F)F)c2)C(=O)N1[C@@H]1CCNC[C@H]1O (relative stereo) | 25 | – | – | inhibition (INH) [4]: Active |
| COc1ccc(Cn2ncc3cc(/C=C4\SC(=O)N(C5CCC(C(=O)O)CC5)C4=O)ccc32)c(C(F)(F)F)c1 (configuration not stated) | – | -11 | 32 | – |
| COc1ccc(Cn2ncc3cc(/C=C4\SC(=O)N(CC(=O)O)C4=O)ccc32)c(C(F)(F)F)c1 | 9 | -9 | 21 | – |
| O=C1S/C(=C\c2ccc3c(cnn3Cc3ccc(Cl)cc3C(F)(F)F)c2)C(=O)N1Cc1nnn[nH]1 | 13 | -44 | -51 | – |
| CC(=O)NS(=O)(=O)CN1C(=O)S/C(=C\c2ccc3c(cnn3Cc3ccc(Cl)cc3C(F)(F)F)c2)C1=O | 8 | -58 | -37 | – |
| CN1CCC[C@H]1CN1C(=O)S/C(=C\c2ccc3c(cnn3Cc3ccc(Cl)cc3C(F)(F)F)c2)C1=O | 5 | -59 | -37 | Cp [5]: < 100 ng/mL |
| CN1CC[C@@H](N2C(=O)S/C(=C\c3ccc4c(cnn4Cc4ccc(Cl)cc4C(F)(F)F)c3)C2=O)[C@H](O)C1 (relative stereo) | 23 | – | – | inhibition (INH) [4]: Active |
| CCC(=C(c1ccc(O)cc1)c1ccc(OCCN(C)C)cc1)c1ccccc1 | – | – | – | IC50 [14]: 886 nM |
| CN1CC[C@H](N2C(=O)S/C(=C\c3ccc4c(cnn4Cc4ccc(Cl)cc4C(F)(F)F)c3)C2=O)[C@H](F)C1 (relative stereo) | 45 | -73 | -57 | inhibition (INH) [12]: Not Active; inhibition (INH) [11]: Not Active; inhibition (INH) [4]: Not Active; inhibition (INH) [13]: Not Active; Activity [6]: -43%; Activity [15]: -35%; Activity [16]: Non-Toxic |
| O=C1S/C(=C\c2ccc3c(cnn3Cc3ccc(Cl)cc3C(F)(F)F)c2)C(=O)N1C[C@H]1COCCN1 | 15 | -52 | -61 | inhibition (INH) [4]: Active; Cp [5]: < 100 ng/mL |
| Cc1nn(Cc2ccc(Cl)cc2C(F)(F)F)c2ccc(/C=C3\SC(=O)N(CC(=O)NS(=O)(=O)N4CCCC4)C3=O)cc12 | 54 | -10 | -23 | Drug uptake [5]: Active |
| O=C1S/C(=C\c2ccc3c(cnn3Cc3ccc(Cl)cc3C(F)(F)F)c2)C(=O)N1CCN1CCOCC1 | 43 | – | – | – |
| O=C(CN1C(=O)S/C(=C\c2ccc3c(cnn3Cc3ccc(Cl)cc3C(F)(F)F)c2)C1=O)NS(=O)(=O)N1CCCC1 | 25 | -47 | 1 | Drug uptake [5]: Active |
